Patent US11712434B2, “Compound having anti-cancer effect, and preparation method therefor and use thereof” (3D MEDICINES (BEIJING) CO., LTD., priority 2016, dated 2023)

Legend:
Assay in all cases: Cell proliferation assay (Alamar Blue)
Assay type in all cases: cell-based
AN3CA = AN3CA tumor cell line, 6 days culture
Description: (§1) 1. Instruments and Materials • Thermo 311 CO2 incubator; Haier biosafety cabinet; Molecular Devices microplate reader; Xiangyi brand L530 desktop low speed centrifuge; Olympus IX51 inverted fluorescence microscope, DMEM, RPMI 1640, MEM, DMEM/F12 1:1 medium, Fetal bovine serum, 0.25% trypsin solution, phosphate buffer (Thermo Fisher Shanghai Co., Ltd.); sigma dimethyl sulfoxide (DMSO), resazurin; 54 commercial tumor cell lines (including 26 liver cancer cell lines). Experimental drugs: compounds 1-12 and active drug Linifanib; chemotherapeutic drug Doxorubicin (HY-15142; Shanghai Qianyuan Biomedical Technology Co., Ltd.).
(§2) 2. Experimental Methods • 2.1 Cultivation of Different Cell Lines • 54 cell lines were cultured in a culture medium containing fetal bovine serum and placed in a 5% CO2 incubator at 37° C. for incubation. The cells were all grown in an adherent state, and the growth was observed under an inverted microscope, and subculture was performed when the cell confluence rate reached 80%-90%. The proportion and quantity of passage were determined by experimental needs. The ratio of subculture of this cell line was generally 1:2^˜1:3. • 2.2 Inhibition Effect on the Proliferation of Different Tumor Cell Lines • Cell test: 54 cell lines in logarithmic growth phase were inoculated in 96-well culture plates at 500^˜1×10^4/well (the optimal seeding density of each cell line was determined in pre-experiment), After incubating at 37° C. for 4 h in a 5% CO2 humidification incubator, added 10 μL of compounds 1-12 or Linifanib to each well, and tested 9 drug concentration gradients for each compound (diluted from the highest concentration of the test by 3.16 times). The solubility of each compound was different at a starting concentration of 100 or 30 μM, respectively. The QC reference compound Doxorubicin was added simultaneously to each cell line test, and the final drug concentrations were 10, 3.16, 1, 0.31, 0.1, 0.03, 0.01, 0.003, and 0.001 μM, respectively. In addition, a positive control group (100% inhibition) and a negative control group (0% inhibition) were set at the same time. The drug group was repeated for 2 wells per concentration, and the positive control group and the negative control group were repeated for 6 wells. After the culture was continued for 6 days in the incubator, AlamarBlue test operation was followed; • AlamarBlue test procedure: Incubated with 10 μL of AlamarBlue reagent per well for 1-4 h, shook for 1-2 min, MD microplate reader EX: 560 nm, EM: 590 nm wavelength to measure fluorescence, recorded the results, calculated the cell inhibition rate of the compound of the invention. Cell inhibition rate (%)=(A0% inhibition−A administration)/(A0% inhibition−A100% inhibition)×100%, and then using the method of nonlinear regression using GraphPad Prism 5.0 or MATILAB software (usually using four parameters) to graph and obtain a drug dose response curve to obtain an IC50 value of the compound of the present invention acting on a cancer cell line.

CCRF-CEM = CCRF-CEM tumor cell line, 6 days culture
Description: as §1, §2

SNU398 = SNU398 liver cancer cell line, 6 days culture
Description: as §1, §2

NCI-H716 = NCI-H716 tumor cell line, 6 days culture
Description: as §1, §2

JHH4 = JHH4 liver cancer cell line, 6 days culture
Description: as §1, §2

HT55 = HT55 tumor cell line, 6 days culture
Description: as §1, §2

DU145 = DU145 tumor cell line, 6 days culture
Description: as §1, §2

HUH1 = HUH1 liver cancer cell line, 6 days culture
Description: as §1, §2

JHH7 = JHH7 liver cancer cell line, 6 days culture
Description: as §1, §2

NCI-H2170 = NCI-H2170 tumor cell line, 6 days culture
Description: as §1, §2

SW620 = SW620 tumor cell line, 6 days culture
Description: as §1, §2

MDA-MB-435S = MDA-MB-435S tumor cell line, 6 days culture
Description: as §1, §2

JHH5 = JHH5 liver cancer cell line, 6 days culture
Description: as §1, §2

SNU475 = SNU475 liver cancer cell line, 6 days culture
Description: as §1, §2

HEPG2 = HEPG2 liver cancer cell line, 6 days culture
Description: as §1, §2

HLF = HLF liver cancer cell line, 6 days culture
Description: as §1, §2

22RV1 = 22RV1 tumor cell line, 6 days culture
Description: as §1, §2

SNU739 = SNU739 liver cancer cell line, 6 days culture
Description: as §1, §2

NCI-H1648 = NCI-H1648 tumor cell line, 6 days culture
Description: as §1, §2

Hep3B2.1-7 = Hep3B2.1-7 liver cancer cell line, 6 days culture
Description: as §1, §2

SK-HEP-1 = SK-HEP-1 liver cancer cell line, 6 days culture
Description: as §1, §2

MG63 = MG63 tumor cell line, 6 days culture
Description: as §1, §2

JHH2 = JHH2 liver cancer cell line, 6 days culture
Description: as §1, §2

JHH1 = JHH1 liver cancer cell line, 6 days culture
Description: as §1, §2

MDA-MB-231 = MDA-MB-231 tumor cell line, 6 days culture
Description: as §1, §2

KASUMI-1 = KASUMI-1 (leukemia cells), 6 days culture
Description: as §1, §2

SNU449 = SNU449 liver cancer cell line, 6 days culture
Description: as §1, §2

## Cc1ccc(F)c(NC(=O)Nc2ccc(-c3cccc4[nH]nc(NC(=O)C[C@H](N)C(=O)N[C@@H](CCC(=O)O)C(=O)O)c34)cc2)c1 [Compound 1]
AN3CA; Homo sapiens, AN3-CA, 144 h
  IC50: 0.34 µM
CCRF-CEM; Homo sapiens, 144 h
  IC50: 6.14 µM
SNU398; Homo sapiens, SNU-398, 144 h
  IC50: 1.75 µM
NCI-H716; Homo sapiens, 144 h
  IC50: 5.49 µM
JHH4; JHH-4, 144 h
  IC50: 25 µM
HT55; Homo sapiens, 144 h
  IC50: 24.7 µM
DU145; Homo sapiens, DU-145, 144 h
  IC50: 4.25 µM
HUH1; Homo sapiens, HuH-1, 144 h
  IC50: 4.67 µM
JHH7; 144 h
  IC50: 1.54 µM
NCI-H2170; Homo sapiens, 144 h
  IC50: 5.32 µM
SW620; Homo sapiens, SW-620, 144 h
  IC50: 3.96 µM
MDA-MB-435S; Homo sapiens, 144 h
  IC50: 10.5 µM
JHH5; 144 h
  IC50: 16.6 µM
SNU475; Homo sapiens, SNU-475, 144 h
  IC50: 4.81 µM
HEPG2; Homo sapiens, 144 h
  IC50: 1.35 µM
HLF; 144 h
  IC50: 5.24 µM
22RV1; Homo sapiens, 144 h
  IC50: 8.16 µM
SNU739; SNU-739, 144 h
  IC50: 7.63 µM
NCI-H1648; Homo sapiens, 144 h
  IC50: 10.1 µM
Hep3B2.1-7; 144 h
  IC50: 3.29 µM
SK-HEP-1; Homo sapiens, SK-HEP1, 144 h
  IC50: 16.6 µM
MG63; Homo sapiens, MG-63, 144 h
  IC50: 2.34 µM
JHH2; JHH-2, 144 h
  IC50: 43.6 µM
JHH1; 144 h
  IC50: 21.4 µM
MDA-MB-231; Homo sapiens, 144 h
  IC50: 7.61 µM
KASUMI-1; Homo sapiens, 144 h
  IC50: 0.02 µM
SNU449; Homo sapiens, SNU-449, 144 h
  IC50: 16.5 µM

## Cc1ccc(F)c(NC(=O)Nc2ccc(-c3cccc4[nH]nc(NC(=O)C[C@H](N)C(=O)N[C@@H](CCC(=O)N[C@@H](CCC(=O)N[C@@H](CCC(=O)N[C@@H](CCC(=O)O)C(=O)O)C(=O)O)C(=O)O)C(=O)O)c34)cc2)c1 [Compound 2]
AN3CA; Homo sapiens, AN3-CA, 144 h
  IC50: 0.73 µM
CCRF-CEM; Homo sapiens, 144 h
  IC50: 10.4 µM
SNU398; Homo sapiens, SNU-398, 144 h
  IC50: 4.63 µM
NCI-H716; Homo sapiens, 144 h
  IC50: 10.8 µM
JHH4; JHH-4, 144 h
  IC50: 36.8 µM
HT55; Homo sapiens, 144 h
  IC50: 40.1 µM
DU145; Homo sapiens, DU-145, 144 h
  IC50: 9.34 µM
HUH1; Homo sapiens, HuH-1, 144 h
  IC50: 7.26 µM
JHH7; 144 h
  IC50: 4.26 µM
NCI-H2170; Homo sapiens, 144 h
  IC50: 7.69 µM
SW620; Homo sapiens, SW-620, 144 h
  IC50: 6.81 µM
MDA-MB-435S; Homo sapiens, 144 h
  IC50: 18.6 µM
JHH5; 144 h
  IC50: 24.7 µM
SNU475; Homo sapiens, SNU-475, 144 h
  IC50: 11.2 µM
HEPG2; Homo sapiens, 144 h
  IC50: 3.86 µM
HLF; 144 h
  IC50: 10.8 µM
22RV1; Homo sapiens, 144 h
  IC50: 11.5 µM
SNU739; SNU-739, 144 h
  IC50: 11.3 µM
NCI-H1648; Homo sapiens, 144 h
  IC50: 21.5 µM
Hep3B2.1-7; 144 h
  IC50: 6.32 µM
SK-HEP-1; Homo sapiens, SK-HEP1, 144 h
  IC50: 31 µM
MG63; Homo sapiens, MG-63, 144 h
  IC50: 5.49 µM
JHH2; JHH-2, 144 h
  IC50: 88.2 µM
JHH1; 144 h
  IC50: 33.9 µM
MDA-MB-231; Homo sapiens, 144 h
  IC50: 12.4 µM
KASUMI-1; Homo sapiens, 144 h
  IC50: 0.05 µM
SNU449; Homo sapiens, SNU-449, 144 h
  IC50: 25.7 µM

## Cc1ccc(F)c(NC(=O)Nc2ccc(-c3cccc4[nH]nc(NC(=O)CCCCCNC(=O)C[C@H](N)C(=O)N[C@@H](CCC(=O)O)C(=O)O)c34)cc2)c1 [Compound 4]
AN3CA
  IC50: 24.9 µM
CCRF-CEM
  IC50: > 100 µM
SNU398
  IC50: > 100 µM
NCI-H716
  IC50: 82.7 µM
JHH4
  IC50: > 100 µM
HT55
  IC50: > 100 µM
DU145
  IC50: > 100 µM
HUH1
  IC50: > 100 µM
JHH7
  IC50: > 100 µM
NCI-H2170
  IC50: > 100 µM
SW620
  IC50: > 100 µM
MDA-MB-435S
  IC50: > 100 µM
JHH5
  IC50: > 100 µM
SNU475
  IC50: > 100 µM
HEPG2
  IC50: 54.3 µM
HLF
  IC50: > 100 µM
22RV1
  IC50: > 100 µM
SNU739
  IC50: > 100 µM
NCI-H1648
  IC50: > 100 µM
Hep3B2.1-7
  IC50: > 100 µM
SK-HEP-1
  IC50: > 100 µM
MG63
  IC50: > 100 µM
JHH2
  IC50: > 100 µM
JHH1
  IC50: > 100 µM
MDA-MB-231
  IC50: > 100 µM
KASUMI-1
  IC50: 1.53 µM
SNU449
  IC50: > 100 µM
